Reference: PMC6917776, “Discovery of a chemical probe for PRDM9” (Nature Communications, 2019)

Legend:
CAL851 = assay: CelltiterGlo viability cell assay; format: cell-based; conditions: CAL851, 6 day
Experimental: (§1) Supplementary Figure 13. […] Viability of
(§2) (a) Multiple Myeloma lines and (b) Breast Cancer cell lines following 3 or 6 days treatment with […]
(§3) manufacturer’s instructions as described in the Supplementary methods. Data are normalized to DMSO control. N=3 biological replicates, +/- SEM. Source data are provided as a Source Data […]
(§4) CelltiterGlo viability cell assay
(§5) Cells were seeded in 96 well plates at per-well densities of 10000 (MDA-MB436, ATCC-HTB130), 15000 (8226, kind gift from Rodger Tiedemann, Princess Margaret Cancer Centre), […]
(§6) kind gift from Rodger Tiedemann, Princess Margaret Cancer Centre) and 50000 (CAL851, kind gift from Mathieu Lupien, Princess Margaret Cancer Centre) and were treated at increasing concentrations of compounds ranging from 0.01 μM to 30 μM and assessed for proliferation using CelltiterGlo (Promega) following manufacturer’s instructions, as readout on days 3 and 6 as indicated. All cell lines were mycoplasma negative, as determined by MycoAlert™ Mycoplasma Detection Kit(Lonza). […]

SKMM2 = assay: CelltiterGlo viability cell assay; format: cell-based
Experimental: as §1, §2, §3, §4, §5, §6

## COc1cc(OC)cc(-c2noc(N3CCN(C)C4(CCN(c5ccccc5)CC4)C3)n2)c1 [MRK-740N]
CAL851; 0.01 uM
  viability Replicate 2: 95.18
  viability Replicate 3: 102.02
CAL851; 0.03 uM
  viability Average: 103.06
  viability Replicate 1: 101.15
  viability Replicate 2: 96.95
  viability Replicate 3: 111.07
CAL851; 0.1 uM
  viability Average: 96.92
  viability Replicate 1: 94.85
  viability Replicate 2: 96.64
  viability Replicate 3: 99.28
CAL851; 0.3 uM
  viability Average: 101.38
  viability Replicate 1: 95.47
  viability Replicate 2: 94.74
  viability Replicate 3: 113.94
CAL851; 1 uM
  viability Average: 102.45
  viability Replicate 1: 100.66
  viability Replicate 2: 100.26
  viability Replicate 3: 106.42
CAL851; 3 uM
  viability Average: 100.92
  viability Replicate 1: 96.08
  viability Replicate 2: 95.38
  viability Replicate 3: 111.29
CAL851; 9.5 uM
  viability Average: 96.88
  viability Replicate 1: 95.12
  viability Replicate 2: 99.49
  viability Replicate 3: 96.04
CAL851; 30 uM
  viability Average: 87.30
  viability Replicate 1: 87.23
  viability Replicate 2: 87.15
  viability Replicate 3: 87.51
SKMM2; SKMM2, 3 day, 0.01 uM
  viability Average: 99.67
  viability Replicate 1: 98.81
  viability Replicate 2: 100.27
  viability Replicate 3: 99.94
SKMM2; SKMM2, 3 day, 0.03 uM
  viability Average: 99.81
  viability Replicate 1: 100.19
  viability Replicate 2: 99.28
  viability Replicate 3: 99.96
SKMM2; SKMM2, 3 day, 0.1 uM
  viability Average: 99.75
  viability Replicate 1: 99.33
  viability Replicate 2: 101.27
  viability Replicate 3: 98.65
SKMM2; SKMM2, 3 day, 0.3 uM
  viability Average: 100.91
  viability Replicate 1: 100.74
  viability Replicate 2: 101.32
  viability Replicate 3: 100.69
SKMM2; SKMM2, 3 day, 1 uM
  viability Average: 99.32
  viability Replicate 1: 99.24
  viability Replicate 2: 100.37
  viability Replicate 3: 98.34
SKMM2; SKMM2, 3 day, 3 uM
  viability Average: 97.16
  viability Replicate 1: 96.17
  viability Replicate 2: 98.52
  viability Replicate 3: 96.79
SKMM2; SKMM2, 3 day, 9.5 uM
  viability Average: 95.36
  viability Replicate 1: 96.79
  viability Replicate 2: 94.04
  viability Replicate 3: 95.26
SKMM2; SKMM2, 3 day, 30 uM
  viability Average: 58.34
  viability Replicate 1: 67.94
  viability Replicate 2: 41.11
  viability Replicate 3: 65.95
SKMM2; SKMM2, 6 day, 0.01 uM
  viability Average: 99.21
  viability Replicate 1: 91.53
  viability Replicate 2: 105.08
  viability Replicate 3: 101.01
SKMM2; SKMM2, 6 day, 0.03 uM
  viability Average: 96.26
  viability Replicate 1: 90.23
  viability Replicate 2: 98.46
  viability Replicate 3: 100.08
SKMM2; SKMM2, 6 day, 0.1 uM
  viability Average: 98.07
  viability Replicate 1: 90.96
  viability Replicate 2: 102.71
  viability Replicate 3: 100.56
SKMM2; SKMM2, 6 day, 0.3 uM
  viability Average: 97.57
  viability Replicate 1: 90.30
  viability Replicate 2: 102.21
  viability Replicate 3: 100.20
SKMM2; SKMM2, 6 day, 1 uM
  viability Average: 94.68
  viability Replicate 1: 89.98
  viability Replicate 2: 95.60
  viability Replicate 3: 98.45
SKMM2; SKMM2, 6 day, 3 uM
  viability Average: 95.79
  viability Replicate 1: 90.06
  viability Replicate 2: 96.19
  viability Replicate 3: 101.13
SKMM2; SKMM2, 6 day, 9.5 uM
  viability Average: 94.06
  viability Replicate 1: 88.71
  viability Replicate 2: 96.00
  viability Replicate 3: 97.48
SKMM2; SKMM2, 6 day, 30 uM
  viability Average: 64.98
  viability Replicate 1: 81.69
  viability Replicate 2: 45.98
  viability Replicate 3: 67.29
